US20110177046A1, “DITHIAZOLIDINE AND THIAZOLIDINE DERIVATIVES AS ANTICANCER AGENTS” (Betagenon AB, priority 2007, published 2011)

How the values were obtained:
[1] = tested on: acetyl-CoA carboxylase (ACC); assay: Test F phosphorylation of ACC (Ser 79), Western blot in HepG2 cells; type: cell-based, human; settings: 10 μM
Description: (§1) The compound of Example 1 was obtained from Isosep AB, Uppsala, Sweden. A stock solution of 10 mM was prepared by dissolving the compound in 100% DMSO.
(§2) Human hepatoma HepG2 cells were purchased from American Type Culture Collection (ATCC, Manassas, USA). HepG2 cells were cultured in DMEM (Gibco 212885) containing 10% fetal bovine serum (Gibco 10500-064), 100 units/ml penicillin, 100 μg/ml streptomycin (Gibco 15140-122) and 1× non essential amino acids (Gibco 11140). The cells were incubated in a humidified atmosphere of 5% CO2 at 37° C. and passaged every 3 days by trypsinization. For experiments, HepG2 cells were incubated in complete medium with 10% fetal bovine serum in 60 or 100-mm-diameter dishes and grown to ˜70-80% confluence and subjected to assays after overnight serum depletion (16 h). After incubation in serum-free DMEM, the compound of Example 1 that was dissolved in DMSO was added to the medium.
Cells were lysed in 100 mM TRIS pH 6.8, 2% w/v Sodium dodecyl sulfate (SDS), 10 mM NaF, 10 mM β-glycerophosphate, 1 mM Na Vanadate. Protein concentration of the lysates was measured by BCA protein assay kit (Pierce #23225). […]

Ob/Ob mice [2] = assay: Test D blood glucose measurement study in diabetic Ob/Ob mice, Method (II); type: in vivo; settings: 30 mg/kg gavage twice daily for 18 days, vs vehicle
Description: The aim of this study was to verify the efficacy of compound of Example 1 in the diabetic ob/ob mouse with regard to correction of the metabolic disorder hyperglycemia. Ob/ob mice were gavaged twice daily with compound of Example 1 and the effect of the compound on levels of blood glucose were assessed and the results were compared to a concurrent control group gavaged with vehicle.
(§3) Male B6.V-Lep^ob/JBomTac (model number OB-M) mice were bred and delivered by Taconic. Animals were housed in Umea University animal facility in transparent polycarbonate cages, with wood chip bedding at a 12 h light/darkness cycle, a temperature of ˜21° C., and a relative humidity of ˜50% throughout the accommodation and dosing periods. 5 animals were housed in each cage with free access to standard rodent chow (CRM(E)Rodent, Special Diets Services, Scanbur BK, Sweden) and tap water. All animal experiments were approved by the Local Ethics Review Committee on Animal Experiments, Umea Region.
(§4) In vivo potency and efficacy were determined in groups of 10 mice. […]
Blood glucose levels were measured by using a Glucometer Elite (Bayer) according to the manufacturer's recommendations.
(§5) Data in the figures are presented as means±SEM. P values were calculated using the Student's t-test. […]

AMPK = assay: Test F activation of AMPK, Western blot of phospho-AMPKα Thr172 in HepG2 cells; type: cell-based, human; settings: 10 μM
Description: as §1, §2
Cells were lysed in 100 mM TRIS pH 6.8, 2% w/v Sodium dodecyl sulfate (SDS), 10 mM NaF, 10 mM β-glycerophosphate, 1 mM Na Vanadate. Protein concentration of the lysates was measured by BCA protein assay kit (Pierce #23225). 25 μg protein was loaded in each well of a 4-12% bis/tris gel for AMPK detection (Criterion precast gel Bio-Rad #345-0124) or 5% Tris-HCl gel for acetyl-CoA carboxylase (ACC) detection (Criterion Precast gel Bio-Rad #345-0002) and run according to manufacturers recommendation. Gels were blotted onto nitrocellulose filters (Hybond-C extra Amersham #RPN203E). Filters were blocked in 20 mM TRIS pH 7.5, 137 mM NaCl, […] and 5% w/v fat free powdered milk for 30 min. Filters were incubated overnight in blocking solution with phospho-AMPKαThr172, AMPKα or phospho-ACC (Ser 79) (Cell signalling #2531, #2532 and #3661). Filters were washed in 20 mM TRIS pH 7.5, 137 mM NaCl, […] for 3×5 min. Filters were incubated in blocking solution with secondary antibody, peroxidase-conjugated Goat anti rabbit IgG (Jackson immunoResearch #111-035-003) in room temperature for 1 h. Filters were washed as above for 3×10 min. […]

Ob/Ob mice [3] = assay: Test E plasma triglyceride study in diabetic Ob/Ob mice, Method (II); type: in vivo; settings: fed Ob/Ob mice, 15 mg/kg gavage twice daily for 20 days, vs vehicle
Description: (§6) The aim of this study was to verify the efficacy of compound of Example 1 in the diabetic ob/ob mouse with regard to correction of the metabolic disorder hypertriglyceridemia. Ob/ob mice were gavaged twice daily with compound of example 1 and the effect of the compound on levels of plasma triglycerides were assessed and the results were compared to a concurrent control group gavaged with vehicle.
as §3, with “B6.V-Lep^ob/JUmeaTac” for “B6.V-Lep^ob/JBomTac”, “UMEA-M)” for “OB-M)”, “[…]” for “˜21°”, “−50%” for “˜50%”
as §4
Plasma triglycerides were determined with an enzymatic colorimetric assay (TRO100, Sigma-Aldrich) according to the manufacturer's recommendations.
as §5

[4] = tested on: MDA-MB-231 human breast cancer cells xenograft tumors; assay: Test B in vivo mouse model Test 2, tumor weight; set-up: species or system Athymic BALB/cA nude mice; settings: 8 mg/kg i.p. once daily for 27 days; vehicle control approximately 225 mg
Description: 5 week old Athymic BALB/cA nude mice are delivered from Taconic (Denmark) and kept under barrier conditions for 1 week acclimatisation. At 6 weeks, 17 mice are injected subcutaneously on the flank with 1.8×10^6 MDA-MB-231 human breast cancer cells (LGC Promochem-ATCC) in a 50/50 v/v solution of phosphate buffered saline (PBS) (Gibco 10010-015, Invitrogen) Matrigel HC (BD Biosciences).
After 11 days, palpable tumors are observed in 16 mice. 2 mice are sacrificed and the tumors dissected and examined. 2 groups of 7 mice each are treated once daily by intraperitoneal injections of 1-10 mg/kg bodyweight of test compound in 79% PBS/20% Solutol HS 15 (BASF)/1% DMSO or vehicle control respectively for 5-30 days. The mice are sacrificed by cervical dislocation and tumors are dissected.
The above test procedure was followed, but 16 (rather than 17) mice were injected subcutaneously.
2 groups of 8 mice each were treated once daily by intraperitoneal injections of 8 mg/kg bodyweight of compound of Example 1 in 79% PBS/20% Solutol HS 15(BASF)/1% DMSO or vehicle control respectively for 27 days. Tumors were dissected and weighed at the end of the experiment.

[5] = tested on: MDA-MB-231 human breast cancer cell lines; assay: Test A cell proliferation assay (BrdU incorporation); type: cell-based; settings: MDA-MB-231 cells; for BrdU incorporation relative to vehicle control (1 unit): approximate
Description: The cell line was propagated in D-MEM (Gibco 21885) supplemented with 10% Foetal calf serum. 15000 cells per well were seeded in 96 well plates and incubated overnight. The culture media was changed to serum-free D-MEM for 24 h. […] After 18 h incubation, BrdU was added according to manufacturer's recommendations. After 6 h incubation in the presence of BrdU, the culture media was removed and BrdU incorporation was measured using “Cell Proliferation ELISA, BrdU colorimetric” Roche (11647229001) according to manufacturer's recommendations.

[6] = tested on: human primary mesangial cells; assay: Test G amelioration of TGFβ dependent collagen IV secretion (ELISA); type: cell-based; settings: 2.5 μM with TGFβ 0.5 ng/ml, 48 h, ELISA absorbance
Description: Human primary mesangial cells (Lonza) were seeded at a density of 57 00 cells per well in a 24 well plate in DMEM (Gibco 212885) supplemented with Non essential amino acids (Gibco 11140) Penicillin/streptomycin (Gibco 15140-122) and 10% Foetal Calf Serum (FBS) (Gibco 10500-064)
After 24 h incubation, media was changed to DMEM (Gibco 212885) supplemented with Non essential amino acids (Gibco 11140) Penicillin/streptomycin (Gibco 15140-122) and 0.5% Foetal Calf Serum (FBS)(Gibco 10500-064) as the experimental media. After 24 h incubation, media was changed to experimental media containing either vehicle or […] (0.5 ng/ml), compound of Example 1 (2.5 μM), or TGFβ (0.5 ng/ml) and compound of Example 1 (2.5 μM) in combination.
After 48 h of exposure the supernatant from each well was collected and subjected to ELISA analysis.
Using Nunc Maxisorp microtiter plates, duplicate samples of conditioned cell culture medium (diluted 1:10) was used for coating ([…], 18 h, +4° C.). […] After 3× washing in ELISA buffer, reactions were visualised using 100 μl/well TMB liquid substrate system for ELISA (Sigma) After maximum 30 min reactions were stopped by addition of 25 μl 1 M H2SO4 and immediately analysed at 450 nm using a Multiskan EX plate reader (Thermo Labsystems).

Ob/Ob mice [7] = assay: Test C insulin measurement study in diabetic Ob/Ob mice, Method (II); type: in vivo; settings: fed Ob/Ob mice, 30 mg/kg gavage twice daily for 18 days, vs vehicle
Description: as §6, with “hyperinsulinemia.” for “hypertriglyceridemia.”, “Example” for “example”, “insulin” for “triglycerides”
The compound of Example 1 was obtained from Isosep AB, Uppsala, Sweden. A stock solution of 6 mg/ml was prepared by dissolving the compound in PBS, pH 7.4, 1% DMSO and 0.5% methyl cellulose.
as §3, with “[…]” for “˜21°”, “−50%” for “˜50%”, “All animal experiments were approved by the Local Ethics Review Committee on Animal Experiments, Umea Region.” left out
as §4
Plasma insulin levels were determined according to the manufacturer's recommendations with a rat insulin ELISA kit using mouse insulin standard (Crystal Chem Inc).
as §5

## O=C1N=C(NS(=O)(=O)c2ccc(Cl)c(Cl)c2)SC1Cc1cccc(C(F)(F)F)c1 (centres unmarked) [Example 1, 5-(3-(Trifluoromethyl)benzyl)-2-(3,4-dichlorophenyl)sulfonyliminothiazolidin-4-one]
[1]
  Effect on phosphorylation of ACC: enhanced phosphorylation of ACC
Ob/Ob mice [2]
  Effect on fed blood glucose levels: attenuated
AMPK
  Effect on AMPK phosphorylation: stimulates AMPK phosphorylation
  Time for AMPK phosphorylation to rise to near maximal levels: ≤ 1 h
  Time for which AMPK phosphorylation was sustained: 24 h
Ob/Ob mice [3]
  Effect on plasma triglycerides: attenuated
[4]
  Tumor weight at the end of the experiment: about 130 mg
[5]; 0.5 μM
  BrdU incorporation relative to vehicle control (1 unit): ~0.95 units
[5]; 1 μM
  BrdU incorporation relative to vehicle control (1 unit): ~1 units
[5]; 5 μM
  BrdU incorporation relative to vehicle control (1 unit): ~0.5 units
[5]; 10 μM
  BrdU incorporation relative to vehicle control (1 unit): ~0.15 units
[5]
  Effect on proliferation rate as measured by BrdU incorporation: dose dependent reduction in proliferation
[6]
  Effect on TGFβ dependent collagen IV secretion: ameliorate the TGFβ dependent collagen IV secretion
Ob/Ob mice [7]
  Effect on hyperinsulinemia (plasma insulin): attenuates hyperinsulinemia
